Results reported in PubChem BioAssay (NCI).
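Five compound concentrations were applied to cells in 96-well plates for 48 hours; endpoints were derived by simple linear interpolation of the resulting dose-response curve. TGI: total growth inhibition.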

Legend:
Experiment in all cases: inhibition of tumour cell growth, NCI panel, 48 h
A498 renal = system: A498 renal
A549 NSCLC = system: A549 NSCLC
ACHN renal = system: ACHN renal
CCRF-CEM leukemia = system: CCRF-CEM leukemia
COLO 205 colon = system: COLO 205 colon
DLD-1 colon = system: DLD-1 colon
EKVX NSCLC = system: EKVX NSCLC
HCC-2998 colon = system: HCC-2998 colon
HCT-116 colon = system: HCT-116 colon
HCT-15 colon = system: HCT-15 colon
HOP-18 NSCLC = system: HOP-18 NSCLC
HOP-62 NSCLC = system: HOP-62 NSCLC
HOP-92 NSCLC = system: HOP-92 NSCLC
HT29 colon = system: HT29 colon
IGROV1 ovarian = system: IGROV1 ovarian
KM12 colon = system: KM12 colon
KM20L2 colon = system: KM20L2 colon
LOX IMVI melanoma = system: LOX IMVI melanoma
LXFL 529 NSCLC = system: LXFL 529 NSCLC
M14 melanoma = system: M14 melanoma
M19-MEL melanoma = system: M19-MEL melanoma
MALME-3M melanoma = system: MALME-3M melanoma
MOLT-4 leukemia = system: MOLT-4 leukemia
NCI-H226 lung = system: NCI-H226 lung
NCI-H23 lung = system: NCI-H23 lung
NCI-H460 lung = system: NCI-H460 lung
NCI-H522 lung = system: NCI-H522 lung
OVCAR-3 ovarian = system: OVCAR-3 ovarian
OVCAR-4 ovarian = system: OVCAR-4 ovarian
OVCAR-5 ovarian = system: OVCAR-5 ovarian
OVCAR-8 ovarian = system: OVCAR-8 ovarian
RXF 393 renal = system: RXF 393 renal
RXF-631 renal = system: RXF-631 renal
SF-268 CNS = system: SF-268 CNS
SF-295 CNS = system: SF-295 CNS
SF-539 CNS = system: SF-539 CNS
SK-MEL-2 melanoma = system: SK-MEL-2 melanoma
SK-MEL-28 melanoma = system: SK-MEL-28 melanoma
SK-MEL-5 melanoma = system: SK-MEL-5 melanoma
SK-OV-3 ovarian = system: SK-OV-3 ovarian
SN12C renal = system: SN12C renal
SNB-19 CNS = system: SNB-19 CNS
SNB-75 CNS = system: SNB-75 CNS
SNB-78 CNS = system: SNB-78 CNS
SW-620 colon = system: SW-620 colon
TK-10 renal = system: TK-10 renal
U251 CNS = system: U251 CNS
UACC-257 melanoma = system: UACC-257 melanoma
UACC-62 melanoma = system: UACC-62 melanoma
UO-31 renal = system: UO-31 renal
XF 498 CNS = system: XF 498 CNS
786-0 renal = system: 786-0 renal
CAKI-1 renal = system: CAKI-1 renal
DMS 114 small cell lung = system: DMS 114 small cell lung
DMS 273 small cell lung = system: DMS 273 small cell lung
HL-60(TB) leukemia = system: HL-60(TB) leukemia
K-562 leukemia = system: K-562 leukemia
RPMI-8226 leukemia = system: RPMI-8226 leukemia
SR leukemia = system: SR leukemia

Measured: TGI

CC(=O)OC1/C=C(\C)C(OC(C)=O)C/C=C(/C)CCC2C(/C=C/C1=O)C2(C)C (stereo unspecified)
93.1 µM: SNB-75 CNS
not listed: 786-0 renal | CAKI-1 renal | DMS 114 small cell lung | DMS 273 small cell lung | HL-60(TB) leukemia | K-562 leukemia | RPMI-8226 leukemia | SR leukemia
> 100 µM: all other assays above

CCN(CC)CCCN1CCc2c([nH]c3ccccc23)C1c1cccnc1 (stereo unspecified)
not listed: HOP-18 NSCLC | SF-268 CNS
> 100 µM: all other assays above

NC(=S)N/N=C(\CC1OC(=O)c2ccccc21)c1ccc(Cl)cc1 (stereo unspecified)
46 µM: HOP-62 NSCLC
74.1 µM: RXF-631 renal
54.9 µM: HCT-116 colon
98.8 µM: COLO 205 colon
57.7 µM: NCI-H23 lung
73.6 µM: U251 CNS
99.2 µM: CAKI-1 renal
53.3 µM: NCI-H226 lung
35.6 µM: OVCAR-8 ovarian
63.8 µM: NCI-H522 lung
52 µM: KM12 colon
62.8 µM: LOX IMVI melanoma
48.6 µM: HCC-2998 colon
66.1 µM: M19-MEL melanoma
49 µM: RXF 393 renal
91.7 µM: HOP-92 NSCLC
47.2 µM: UACC-62 melanoma
44.9 µM: SF-539 CNS
65.9 µM: HT29 colon
75 µM: DMS 114 small cell lung
84.9 µM: UO-31 renal
99 µM: OVCAR-4 ovarian
not listed: A498 renal | CCRF-CEM leukemia | EKVX NSCLC | HOP-18 NSCLC | SK-MEL-2 melanoma | SK-MEL-5 melanoma
> 100 µM: all other assays above
